The results in this text go back to ChEMBL document CHEMBL1909046, “DrugMatrix in vitro pharmacology data”.

pIC50, pKi: −log10 of the molar value.

D(3) dopamine receptor, sequence (P35462 whole entry): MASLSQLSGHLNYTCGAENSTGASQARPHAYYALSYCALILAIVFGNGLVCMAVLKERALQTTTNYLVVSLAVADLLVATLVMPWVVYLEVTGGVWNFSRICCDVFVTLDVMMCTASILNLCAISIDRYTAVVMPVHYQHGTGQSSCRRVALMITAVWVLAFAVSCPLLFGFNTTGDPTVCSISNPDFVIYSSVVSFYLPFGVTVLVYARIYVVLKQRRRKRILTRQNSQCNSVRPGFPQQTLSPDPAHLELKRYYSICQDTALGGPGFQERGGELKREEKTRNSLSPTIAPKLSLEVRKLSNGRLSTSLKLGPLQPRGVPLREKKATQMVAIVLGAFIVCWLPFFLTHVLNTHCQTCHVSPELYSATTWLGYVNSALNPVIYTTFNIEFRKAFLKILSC

Test system in the first data set: not listed separately
Nature of the data set: DRUGMATRIX: Calcium Channel Type L, Phenylalkylamine radioligand binding (ligand: [3H] (-)-Desmethoxyverapamil (D-888)). It is filed as cell membranes, Rattus norvegicus, Wistar, Brain, Membrane. The note with it: Not Active = under 50% inhibition at 10 µM.
`CCN(CC)CCNC(=O)c1cc(S(C)(=O)=O)ccc1OC` [TIAPRIDE]: the IC50 entry is “Not Active” and the Ki result is listed as “Not Active”.
On to `NC1CCN(c2nc3c(cc2F)c(=O)c(C(=O)O)cn3-c2ccc(F)cc2F)C1` (centres undefined) [TOSUFLOXACIN], for which the IC50 result is “Not Active” and the Ki result is on record as “Not Active”.
On to `O=C(Nc1ccc(Br)cc1)c1cc(Br)cc(Br)c1O` [TRIBROMSALAN], for which the IC50 result is on record as “Not Active” and the Ki entry is “Not Active”.
Consider `CC(c1cc2ccccc2s1)N(O)C(N)=O` (centres undefined) [ZILEUTON], for which the IC50 entry is “Not Active” and the Ki result is reported as “Not Active”.
As for MANGANESE CHLORIDE ANHYDROUS, the IC50 entry is given as “Not Active” and the Ki result is listed as “Not Active”.
As to SODIUM ORTHOVANAD, the IC50 entry is “Not Active” and the Ki result is given as “Not Active”.

Another data set addresses D(3) dopamine receptor (Homo sapiens, UniProt P35462). Nature of the data set: DRUGMATRIX: Dopamine D3 radioligand binding (ligand: [3H] Spiperone). It is filed as cell membranes, CHO, Membrane. The note with it: cho.
With `NC1CCN(c2nc3c(cc2F)c(=O)c(C(=O)O)cn3-c2ccc(F)cc2F)C1` (centres undefined) [TOSUFLOXACIN], the IC50 entry is listed as “Not Active”.
Same read-out and setting: for `O=C(Nc1ccc(Br)cc1)c1cc(Br)cc(Br)c1O` [TRIBROMSALAN] the value was “Not Active”; for `CC(c1cc2ccccc2s1)N(O)C(N)=O` (centres undefined) [ZILEUTON], “Not Active”.
For MANGANESE CHLORIDE ANHYDROUS, the IC50 entry was “Not Active” and the Ki result is listed as “Not Active”.
With SODIUM ORTHOVANAD, the IC50 entry is “Not Active” and the Ki entry is “Not Active”.

The data set is the same for the next values; noted with them: read-out: IC50.
One may read the pIC50 as the IC50 on a negative log10 scale, so that one unit is a factor of ten. With `CCN(CC)CCNC(=O)c1cc(S(C)(=O)=O)ccc1OC` [TIAPRIDE], the pIC50 is 5.94.

The same data set, now with this note: read-out: Ki.
Broadly, the pKi is the negative decadic logarithm of the Ki, by convention in mol/L. As for `CCN(CC)CCNC(=O)c1cc(S(C)(=O)=O)ccc1OC` [TIAPRIDE], the pKi was 6.41.

Test system in the next data set: not listed separately
Nature of the data set: DRUGMATRIX: GABAA, Muscimol, Central radioligand binding (ligand: [3H] Muscimol). It is filed as cell membranes, Rattus norvegicus, Wistar, Brain, Membrane. To be noted: Not Active = under 50% inhibition at 10 µM.
Take `CCN(CC)CCNC(=O)c1cc(S(C)(=O)=O)ccc1OC` [TIAPRIDE]: the IC50 entry is given as “Not Active” and the Ki result is reported as “Not Active”.
On to `NC1CCN(c2nc3c(cc2F)c(=O)c(C(=O)O)cn3-c2ccc(F)cc2F)C1` (centres undefined) [TOSUFLOXACIN], for which the IC50 entry was “Not Active” and the Ki result was “Not Active”.
In the case of `O=C(Nc1ccc(Br)cc1)c1cc(Br)cc(Br)c1O` [TRIBROMSALAN], the IC50 result is recorded as “Not Active” and the Ki entry was “Not Active”.
As to `CC(c1cc2ccccc2s1)N(O)C(N)=O` (centres undefined) [ZILEUTON], the IC50 entry was “Not Active” and the Ki result is listed as “Not Active”.
For the compound MANGANESE CHLORIDE ANHYDROUS, the IC50 entry is recorded as “Not Active” and the Ki result was “Not Active”.
As to SODIUM ORTHOVANAD, the IC50 result is given as “Not Active” and the Ki entry is listed as “Not Active”.

The target in another data set is T1, Caspase-1 (Homo sapiens, UniProt P29466).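 Also: Caspase-1 enzyme inhibition assay with a peptide substrate; in other assays of this panel Not Active means under 50% inhibition at 10 µM.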
T1 sequence (P29466 whole entry): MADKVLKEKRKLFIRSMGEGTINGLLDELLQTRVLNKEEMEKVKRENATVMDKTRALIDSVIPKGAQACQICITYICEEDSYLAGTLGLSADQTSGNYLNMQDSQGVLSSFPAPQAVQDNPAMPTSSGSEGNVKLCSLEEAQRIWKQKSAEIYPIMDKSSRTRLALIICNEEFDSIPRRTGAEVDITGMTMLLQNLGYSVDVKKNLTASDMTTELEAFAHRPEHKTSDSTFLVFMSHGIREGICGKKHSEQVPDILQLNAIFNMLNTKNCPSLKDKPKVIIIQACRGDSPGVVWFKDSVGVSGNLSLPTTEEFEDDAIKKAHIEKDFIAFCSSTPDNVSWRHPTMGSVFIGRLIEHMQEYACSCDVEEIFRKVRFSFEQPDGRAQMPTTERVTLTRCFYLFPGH
Further details: species or system Escherichia coli.
Settings: not given
Turning to `CCN(CC)CCNC(=O)c1cc(S(C)(=O)=O)ccc1OC` [TIAPRIDE], the IC50 entry is “Not Active”.
Turning to `NC1CCN(c2nc3c(cc2F)c(=O)c(C(=O)O)cn3-c2ccc(F)cc2F)C1` (centres undefined) [TOSUFLOXACIN], the IC50 entry is recorded as “Not Active”.
As for `O=C(Nc1ccc(Br)cc1)c1cc(Br)cc(Br)c1O` [TRIBROMSALAN], the IC50 result was “Not Active”.
`CC(c1cc2ccccc2s1)N(O)C(N)=O` (centres undefined) [ZILEUTON]: the IC50 result is given as “Not Active”.
Regarding MANGANESE CHLORIDE ANHYDROUS, the IC50 entry is given as “Not Active” and the Ki entry is “Not Active”.
For the compound SODIUM ORTHOVANAD, the IC50 entry was “Not Active” and the Ki entry was “Not Active”.

A further data set deals with Tyrosine-protein kinase Lck (Homo sapiens, UniProt P06239). Nature of the data set: DRUGMATRIX: Protein Tyrosine Kinase, LCK enzyme inhibition (substrate: Poly(Glu:Tyr)). The note with it: Not Active = under 50% inhibition at 10 µM; read-out: IC50. The format is cell-based, Insect cells.
Tyrosine-protein kinase Lck, sequence (P06239 whole entry): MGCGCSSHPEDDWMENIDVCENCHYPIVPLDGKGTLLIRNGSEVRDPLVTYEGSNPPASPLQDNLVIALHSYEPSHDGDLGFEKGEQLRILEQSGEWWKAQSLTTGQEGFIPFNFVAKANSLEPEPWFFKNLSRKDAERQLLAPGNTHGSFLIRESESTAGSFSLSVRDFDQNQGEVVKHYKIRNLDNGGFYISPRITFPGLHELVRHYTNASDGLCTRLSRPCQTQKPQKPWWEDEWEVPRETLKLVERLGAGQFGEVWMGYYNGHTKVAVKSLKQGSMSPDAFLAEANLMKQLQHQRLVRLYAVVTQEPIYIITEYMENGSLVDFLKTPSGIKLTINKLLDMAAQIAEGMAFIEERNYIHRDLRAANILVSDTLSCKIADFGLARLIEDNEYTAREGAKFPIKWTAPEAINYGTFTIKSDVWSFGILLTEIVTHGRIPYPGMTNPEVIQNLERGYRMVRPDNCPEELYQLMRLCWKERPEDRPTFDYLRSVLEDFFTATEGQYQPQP
As for `O=C(Nc1ccc(Br)cc1)c1cc(Br)cc(Br)c1O` [TRIBROMSALAN], the pIC50 was 5.30.

The data set is the same for the next values; noted with them: insect cells; Not Active = under 50% inhibition at 10 µM.
Turning to `CCN(CC)CCNC(=O)c1cc(S(C)(=O)=O)ccc1OC` [TIAPRIDE], the IC50 entry is recorded as “Not Active”.
Still for that read-out and setting: the entry for `NC1CCN(c2nc3c(cc2F)c(=O)c(C(=O)O)cn3-c2ccc(F)cc2F)C1` (centres undefined) [TOSUFLOXACIN] is “Not Active”; for `CC(c1cc2ccccc2s1)N(O)C(N)=O` (centres undefined) [ZILEUTON] it is “Not Active”.
For the compound MANGANESE CHLORIDE ANHYDROUS, the IC50 entry is listed as “Not Active” and the Ki result was “Not Active”.
Take SODIUM ORTHOVANAD: the IC50 entry is recorded as “Not Active” and the Ki result is “Not Active”.

For the next data set, the target named is Cytochrome P450 2C19 (Homo sapiens, UniProt P33261). To be noted: bti-tn-5b1-4. Also: in other assays of this panel Not Active means under 50% inhibition at 10 µM.
Cytochrome P450 2C19, sequence (P33261 whole entry): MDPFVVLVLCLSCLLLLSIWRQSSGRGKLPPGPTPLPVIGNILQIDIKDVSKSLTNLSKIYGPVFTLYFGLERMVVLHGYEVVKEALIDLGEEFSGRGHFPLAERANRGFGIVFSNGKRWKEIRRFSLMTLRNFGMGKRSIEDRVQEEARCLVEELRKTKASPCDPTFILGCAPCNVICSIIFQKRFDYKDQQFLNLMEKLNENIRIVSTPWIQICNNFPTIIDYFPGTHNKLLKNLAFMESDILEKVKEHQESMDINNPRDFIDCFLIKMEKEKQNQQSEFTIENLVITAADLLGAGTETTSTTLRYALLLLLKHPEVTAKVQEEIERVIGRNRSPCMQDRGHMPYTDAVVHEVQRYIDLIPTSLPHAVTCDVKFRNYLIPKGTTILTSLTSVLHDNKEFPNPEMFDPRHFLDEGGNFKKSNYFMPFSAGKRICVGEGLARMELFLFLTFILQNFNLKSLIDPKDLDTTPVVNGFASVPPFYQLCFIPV
Take `CCN(CC)CCNC(=O)c1cc(S(C)(=O)=O)ccc1OC` [TIAPRIDE]: the IC50 entry is “Not Active” and the Ki result is given as “Not Active”.
Consider `NC1CCN(c2nc3c(cc2F)c(=O)c(C(=O)O)cn3-c2ccc(F)cc2F)C1` (centres undefined) [TOSUFLOXACIN], for which the IC50 entry was “Not Active” and the Ki result is given as “Not Active”.
With `O=C(Nc1ccc(Br)cc1)c1cc(Br)cc(Br)c1O` [TRIBROMSALAN], the IC50 result is given as “Not Active” and the Ki result was “Not Active”.
Consider `CC(c1cc2ccccc2s1)N(O)C(N)=O` (centres undefined) [ZILEUTON], for which the IC50 result was “Not Active” and the Ki result is recorded as “Not Active”.
Turning to MANGANESE CHLORIDE ANHYDROUS, the IC50 result was “Not Active” and the Ki result is “Not Active”.
As to SODIUM ORTHOVANAD, the IC50 result was “Not Active” and the Ki result is listed as “Not Active”.

The target in the next data set is T2, Glucocorticoid receptor (Homo sapiens, UniProt P04150). Also: in other assays of this panel Not Active means under 50% inhibition at 10 µM.
T2 sequence (P04150 whole entry): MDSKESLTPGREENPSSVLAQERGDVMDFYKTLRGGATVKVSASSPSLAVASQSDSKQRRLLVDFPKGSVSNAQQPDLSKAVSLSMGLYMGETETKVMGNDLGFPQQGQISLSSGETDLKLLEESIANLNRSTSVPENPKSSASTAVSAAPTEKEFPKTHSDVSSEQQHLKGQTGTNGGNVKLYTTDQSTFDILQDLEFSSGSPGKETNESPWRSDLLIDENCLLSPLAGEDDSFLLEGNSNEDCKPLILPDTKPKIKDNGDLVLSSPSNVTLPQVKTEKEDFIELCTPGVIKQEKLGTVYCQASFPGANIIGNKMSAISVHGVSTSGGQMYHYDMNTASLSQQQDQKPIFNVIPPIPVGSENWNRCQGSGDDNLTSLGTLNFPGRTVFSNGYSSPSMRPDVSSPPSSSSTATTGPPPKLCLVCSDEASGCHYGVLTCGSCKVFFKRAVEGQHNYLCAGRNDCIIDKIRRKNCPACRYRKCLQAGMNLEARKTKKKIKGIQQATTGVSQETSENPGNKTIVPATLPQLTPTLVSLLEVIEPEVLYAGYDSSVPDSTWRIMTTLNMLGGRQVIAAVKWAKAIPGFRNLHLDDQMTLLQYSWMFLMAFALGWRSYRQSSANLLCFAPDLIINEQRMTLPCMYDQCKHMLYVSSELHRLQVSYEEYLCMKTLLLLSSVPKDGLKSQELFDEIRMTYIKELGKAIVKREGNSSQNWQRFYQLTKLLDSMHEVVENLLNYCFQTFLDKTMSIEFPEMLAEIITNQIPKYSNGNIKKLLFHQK
The note with it: hela s3.
Consider `CCN(CC)CCNC(=O)c1cc(S(C)(=O)=O)ccc1OC` [TIAPRIDE], for which the IC50 result was “Not Active”.
Still for that read-out and setting: for `NC1CCN(c2nc3c(cc2F)c(=O)c(C(=O)O)cn3-c2ccc(F)cc2F)C1` (centres undefined) [TOSUFLOXACIN] the value was “Not Active”.
For `O=C(Nc1ccc(Br)cc1)c1cc(Br)cc(Br)c1O` [TRIBROMSALAN], the IC50 result is “Not Active”.
For the compound `CC(c1cc2ccccc2s1)N(O)C(N)=O` (centres undefined) [ZILEUTON], the IC50 result is listed as “Not Active”.
For MANGANESE CHLORIDE ANHYDROUS, the IC50 entry is listed as “Not Active” and the Ki result is “Not Active”.
Turning to SODIUM ORTHOVANAD, the IC50 entry is given as “Not Active” and the Ki result was “Not Active”.
